Columns and labels:
SR [1] = test: Cytotoxicity against human SR cells assessed as growth level at 10 uM after 48 hrs by SRB assay; assay type: functional
[2] = Cytotoxicity against human HOP92 cells assessed as growth level at 10 uM after 48 hrs by SRB assay; assay type: functional, HOP-92
NCI-H322M = test: Cytotoxicity against human NCI-H322M cells assessed as growth level at 10 uM after 48 hrs by SRB assay; assay type: functional
NCI-H522 = test: Cytotoxicity against human NCI-H522 cells assessed as growth level at 10 uM after 48 hrs by SRB assay; assay type: functional
[3] = Cytotoxicity against human HCT15 cells assessed as growth level at 10 uM after 48 hrs by SRB assay; assay type: functional, HCT-15
[4] = Cytotoxicity against human SF268 cells assessed as growth level at 10 uM after 48 hrs by SRB assay; assay type: functional, SF-268
[5] = Cytotoxicity against human SF539 cells assessed as growth level at 10 uM after 48 hrs by SRB assay; assay type: functional, SF-539
M14 [6] = test: Cytotoxicity against human M14 cells assessed as growth level at 10 uM after 48 hrs by SRB assay; assay type: functional
MDA-MB-435 = test: Cytotoxicity against human MDA-MB-435 cells assessed as growth level at 10 uM after 48 hrs by SRB assay; assay type: functional
[7] = Cytotoxicity against human UACC62 cells assessed as growth level at 10 uM after 48 hrs by SRB assay; assay type: functional, UACC-62
[8] = Cytotoxicity against human OVCAR4 cells assessed as growth level at 10 uM after 48 hrs by SRB assay; assay type: functional, OVCAR-4
[9] = Cytotoxicity against human Caki1 cells assessed as growth level at 10 uM after 48 hrs by SRB assay; assay type: functional, CAKI-1
[10] = Cytotoxicity against human DU145 cells assessed as growth level at 10 uM after 48 hrs by SRB assay; assay type: functional, DU-145
[11] = Cytotoxicity against human BT549 cells assessed as growth level at 10 uM after 48 hrs by SRB assay; assay type: functional, BT-549
MDA-MB-468 = test: Cytotoxicity against human MDA-MB-468 cells assessed as growth level at 10 uM after 48 hrs by SRB assay; assay type: functional
CCRF-CEM = test: Cytotoxicity against human CCRF-CEM cells after 48 hrs by SRB assay; assay type: functional
[12] = Cytotoxicity against human RPMI8226 cells after 48 hrs by SRB assay; assay type: functional; details: RPMI-8226, 48 h
SR [13] = test: Cytotoxicity against human SR cells after 48 hrs by SRB assay; assay type: functional
A549 = test: Cytotoxicity against human A549 cells after 48 hrs by SRB assay; assay type: functional; details: A549, 48 h
[14] = Cytotoxicity against human HCT15 cells after 48 hrs by SRB assay; assay type: functional; details: HCT-15, 48 h
HT-29 = test: Cytotoxicity against human HT-29 cells after 48 hrs by SRB assay; assay type: functional; details: HT-29, 48 h
KM12 = test: Cytotoxicity against human KM12 cells after 48 hrs by SRB assay; assay type: functional; details: KM12, 48 h
M14 [15] = test: Cytotoxicity against human M14 cells after 48 hrs by SRB assay; assay type: functional; details: M14, 48 h
[16] = Cytotoxicity against human NCI-ADR-RES cells after 48 hrs by SRB assay; assay type: functional
[17] = Cytotoxicity against human SKOV3 cells after 48 hrs by SRB assay; assay type: functional; details: SK-OV-3, 48 h
ACHN = test: Cytotoxicity against human ACHN cells after 48 hrs by SRB assay; assay type: functional
[18] = Cytotoxicity against human Caki1 cells after 48 hrs by SRB assay; assay type: functional; details: CAKI-1, 48 h
[19] = Cytotoxicity against human BT549 cells after 48 hrs by SRB assay; assay type: functional; details: BT-549, 48 h
[20] = Cytotoxicity against human HL-60(TB) cells assessed as growth level at 10 uM after 48 hrs by SRB assay; assay type: functional
[21] = read-out: LC50 (the source's name)

Compound C=C1CC[C@@H]2[C@](C)(COC(C)=O)[C@H](OC(C)=O)CC[C@@]2(C)[C@@H]1CC(Nc1ccc(S(=O)(=O)NC(C)=O)cc1)C1=CCOC1=O (mixture of isomers) has an Activity (SR [1]) of 2.08%, an Activity [2] of 20.95% and an Activity (NCI-H322M) of 35.29%. For the same compound, the Activity (NCI-H522) was -63.21%, the Activity [3] was -49.53% and the Activity [4] was 6.72%. For the same compound, the Activity [5] was -76.71%, the Activity (M14 [6]) was -35.08% and the Activity (MDA-MB-435) was -38.84%. The Activity [7] was -12.47%, the Activity [8] was 26.08% and the Activity [9] was 30.25%. It also gave an Activity [10] of 0.37%, an Activity [11] of -62.63% and an Activity (MDA-MB-468) of -53.94%. It also gave a GI50 (CCRF-CEM) of 1.93 µM, a TGI (CCRF-CEM) of 6.26 µM and a CC50 (CCRF-CEM; [21]) greater than 75 µM. It also gave a GI50 [12] of 1.84 µM, an LC50 [12] greater than 75 µM and a TGI [12] of 6.53 µM. It also gave a GI50 (SR [13]) of 0.99 µM, a TGI (SR [13]) of 18.1 µM and a CC50 (SR [13]; [21]) greater than 75 µM. The GI50 (A549) was 8.41 µM, the LC50 (A549) was 40 µM and the TGI (A549) was 18.3 µM. The GI50 [14] was 1.53 µM, the LC50 [14] was 38 µM and the TGI [14] was 4.36 µM. It also gave a GI50 (HT-29) of 1.57 µM, an LC50 (HT-29) of 17.9 µM and a TGI (HT-29) of 3.55 µM. For the same compound, the GI50 (KM12) was 5.11 µM, the LC50 (KM12) was 40.5 µM and the TGI (KM12) was 15.9 µM. The GI50 (M14 [15]) was 2.86 µM, the LC50 (M14 [15]) was 45.8 µM and the TGI (M14 [15]) was 11.9 µM. It also gave a GI50 [16] of 2.51 µM, an LC50 [16] greater than 75 µM and a TGI [16] of 9.14 µM. For the same compound, the GI50 [17] was 9.31 µM, the TGI [17] was 18.7 µM and the CC50 [17, 21] was 37.4 µM. It also gave a GI50 (ACHN) of 7.54 µM, an LC50 (ACHN) of 36.3 µM and a TGI (ACHN) of 16.5 µM. The GI50 [18] was 3.31 µM, the LC50 [18] was 29 µM and the TGI [18] was 11.2 µM. For the same compound, the GI50 [19] was 2.32 µM, the TGI [19] was 7.93 µM and the CC50 [19, 21] was 25.1 µM. The Activity [20] was -31.09%.

— ChEMBL document CHEMBL3734705, “Synthesis and in vitro cytotoxicity of novel C-12 substituted-14-deoxy-andrographolide derivatives as potent anti-cancer agents” (2015)
